Reference: article PMC7559834, “Functional and Pharmacological Comparison of Human, Mouse, and Rat Organic Cation Transporter 1 toward Drug and Pesticide Interaction” (International Journal of Molecular Sciences, 2020)
Like-named read-outs stand apart in the source and are kept apart here.

Columns and labels:
mouse Oct1 (mOct1) = molecular target: T1, mouse Oct1 (mOct1) (Mus musculus, UniProt O08966); experiment: inhibition of 3H-MPP uptake in transfected HEK293 cells; type: cell-based
T1 construct: gene Slc22a1; NM_009202.5, stably transfected HEK293 cells
T1 sequence (O08966 1-556): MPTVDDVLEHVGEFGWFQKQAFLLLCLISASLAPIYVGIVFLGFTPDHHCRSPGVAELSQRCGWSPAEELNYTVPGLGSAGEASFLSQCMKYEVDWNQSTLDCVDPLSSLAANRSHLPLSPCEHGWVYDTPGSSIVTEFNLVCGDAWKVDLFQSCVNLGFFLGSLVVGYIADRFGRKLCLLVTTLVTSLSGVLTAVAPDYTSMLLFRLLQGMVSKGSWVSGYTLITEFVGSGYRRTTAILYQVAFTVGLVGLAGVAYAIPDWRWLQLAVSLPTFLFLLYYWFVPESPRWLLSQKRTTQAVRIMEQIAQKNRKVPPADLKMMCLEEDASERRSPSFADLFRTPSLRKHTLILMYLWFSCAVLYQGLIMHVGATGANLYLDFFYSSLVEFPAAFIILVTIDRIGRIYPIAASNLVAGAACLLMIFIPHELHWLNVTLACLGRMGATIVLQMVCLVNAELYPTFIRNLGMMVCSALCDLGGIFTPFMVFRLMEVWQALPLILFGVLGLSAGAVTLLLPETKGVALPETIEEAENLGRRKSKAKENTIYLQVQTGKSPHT

hMATE1 = molecular target: T2, hMATE1 (Homo sapiens, UniProt Q96FL8); experiment: inhibition of […]-metformin uptake in transfected HEK293 cells, % at […]; type: cell-based; settings: read-out: Inhibitory Effects (%) / hMATE1 / 10 μM
T2 construct: gene SLC47A1; NM_018242.2, stably transfected HEK293 cells
T2 sequence (Q96FL8 1-570): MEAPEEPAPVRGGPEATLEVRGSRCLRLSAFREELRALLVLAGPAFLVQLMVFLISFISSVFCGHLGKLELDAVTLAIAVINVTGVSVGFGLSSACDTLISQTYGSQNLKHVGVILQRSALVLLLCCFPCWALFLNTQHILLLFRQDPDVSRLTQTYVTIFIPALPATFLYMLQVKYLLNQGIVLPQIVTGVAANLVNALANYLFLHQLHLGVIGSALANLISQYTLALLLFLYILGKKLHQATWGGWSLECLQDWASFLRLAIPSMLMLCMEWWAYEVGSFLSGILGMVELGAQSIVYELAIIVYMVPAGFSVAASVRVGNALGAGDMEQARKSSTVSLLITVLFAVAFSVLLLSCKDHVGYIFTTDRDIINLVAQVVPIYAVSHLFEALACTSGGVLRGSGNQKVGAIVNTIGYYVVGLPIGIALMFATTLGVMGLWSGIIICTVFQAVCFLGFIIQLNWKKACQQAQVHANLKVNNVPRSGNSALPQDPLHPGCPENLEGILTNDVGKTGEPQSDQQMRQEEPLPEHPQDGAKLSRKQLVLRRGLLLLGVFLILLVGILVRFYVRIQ

rat Oct1 (rOct1) = molecular target: T3, rat Oct1 (rOct1) (Rattus norvegicus, UniProt Q63089); experiment: inhibition of 3H-MPP uptake in transfected HEK293 cells; type: cell-based
T3 construct: gene Slc22a1; NM_012697.1, stably transfected HEK293 cells
T3 sequence (Q63089 1-556): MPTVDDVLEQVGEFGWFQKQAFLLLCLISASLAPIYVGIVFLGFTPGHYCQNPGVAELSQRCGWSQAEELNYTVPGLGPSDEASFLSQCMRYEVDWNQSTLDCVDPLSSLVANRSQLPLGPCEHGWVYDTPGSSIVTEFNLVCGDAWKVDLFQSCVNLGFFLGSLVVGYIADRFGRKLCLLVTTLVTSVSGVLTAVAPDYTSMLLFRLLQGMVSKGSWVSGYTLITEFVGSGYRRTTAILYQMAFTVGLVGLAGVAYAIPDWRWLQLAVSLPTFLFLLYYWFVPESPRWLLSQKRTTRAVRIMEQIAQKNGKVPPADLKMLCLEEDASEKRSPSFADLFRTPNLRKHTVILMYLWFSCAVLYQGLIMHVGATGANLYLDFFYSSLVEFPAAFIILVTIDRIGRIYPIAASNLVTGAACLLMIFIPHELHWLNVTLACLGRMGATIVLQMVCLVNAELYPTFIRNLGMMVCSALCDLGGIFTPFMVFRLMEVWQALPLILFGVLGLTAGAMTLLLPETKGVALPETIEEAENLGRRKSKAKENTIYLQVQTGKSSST

human OCT1 (hOCT1) [1] = molecular target: T4, human OCT1 (hOCT1) (Homo sapiens, UniProt O15245); experiment: as above; type: cell-based; parameters: gene SLC22A1; NM_003057.2, OCT1*1B allele, stably transfected HEK293 cells
T4 sequence (O15245 1-554): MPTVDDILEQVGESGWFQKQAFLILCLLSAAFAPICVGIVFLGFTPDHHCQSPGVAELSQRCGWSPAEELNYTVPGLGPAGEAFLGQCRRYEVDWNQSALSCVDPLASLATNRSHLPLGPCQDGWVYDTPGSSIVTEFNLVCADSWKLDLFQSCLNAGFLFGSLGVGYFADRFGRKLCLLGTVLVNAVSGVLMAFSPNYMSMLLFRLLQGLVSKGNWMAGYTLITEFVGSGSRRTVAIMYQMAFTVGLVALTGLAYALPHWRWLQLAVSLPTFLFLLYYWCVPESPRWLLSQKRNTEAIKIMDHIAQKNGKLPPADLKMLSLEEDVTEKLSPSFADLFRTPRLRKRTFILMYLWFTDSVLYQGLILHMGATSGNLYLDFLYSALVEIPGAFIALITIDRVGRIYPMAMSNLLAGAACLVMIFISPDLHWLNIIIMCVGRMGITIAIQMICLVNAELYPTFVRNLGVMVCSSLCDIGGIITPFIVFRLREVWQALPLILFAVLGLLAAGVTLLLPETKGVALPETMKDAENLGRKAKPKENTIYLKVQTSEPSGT

human OCT1 (hOCT1) [2] = molecular target: T4, human OCT1 (hOCT1); experiment: cell-based; parameters: gene SLC22A1; settings: HEK293, read-out: Inhibitory Effects (%) / hOCT1 / 10 μM
[3] = inhibition of 3H-MPP uptake in transfected HEK293 cells, % at […]; type: cell-based, Mus musculus; settings: read-out: Inhibitory Effects (%) / hOCT1 / 100 μM
[4] = substrate: C[n+]1ccc(-c2ccccc2)cc1; experiment: concentration-dependent 3H-MPP uptake, Km; type: cell-based, Mus musculus
[5] = substrate: C[n+]1ccc(-c2ccccc2)cc1; experiment: concentration-dependent 3H-MPP uptake, Km; type: cell-based, Rattus norvegicus
[6] = substrate: C[n+]1ccc(-c2ccccc2)cc1; experiment: concentration-dependent 3H-MPP uptake, Km; type: cell-based, Homo sapiens

CCN1/C(=C/c2ccc3ccccc3[n+]2CC)C=Cc2ccccc21 [decynium22]
IC50 (mouse Oct1 (mOct1)): 5.3 ± 0.4 µM
inhibition at 10 µM (hMATE1): 76%
IC50 (rat Oct1 (rOct1)): 10.5 ± 0.4 µM
IC50 (human OCT1 (hOCT1) [1]): 12.1 ± 0.8 µM

Clc1cccc(Cl)c1N=C1NCCN1 [Clonidine]
inhibition at 10 µM (human OCT1 (hOCT1) [2]): 73%

CC(=O)N1CCN(c2ccc(OCC3COC(Cn4ccnc4)(c4ccc(Cl)cc4Cl)O3)cc2)CC1 (stereo not shown) [Ketoconazol]
inhibition at 10 µM (hMATE1): 87%

C=CCOC(Cn1ccnc1)c1ccc(Cl)cc1Cl (stereo not shown) [Imazalil]
inhibition at 10 µM [3]: 84%

B1: mouse Oct1 (mOct1) (Mus musculus) (protein)
chain: T1 sequence (O08966 1-556)
notes: NM_009202.5, stably transfected HEK293 cells
Km [4]: 36 ± 13 µM

B2: rat Oct1 (rOct1) (Rattus norvegicus) (protein)
chain: T3 sequence (Q63089 1-556)
notes: NM_012697.1, stably transfected HEK293 cells
Km [5]: 57 ± 5 µM

B3: human OCT1 (hOCT1) (Homo sapiens) (protein)
chain: T4 sequence (O15245 1-554)
notes: NM_003057.2, OCT1*1B allele, stably transfected HEK293 cells
Km [6]: 73 ± 7 µM
